This is an account of results in BindingDB's records for patent WO2022104348 (Janssen Pharmaceutica, 2022).

The assay addresses Mitogen-activated protein kinase kinase kinase 14 (Homo sapiens, UniProt Q99558). Put plainly: Inhibition of auto-phosphorylation of recombinant human NF-kappaB-inducing kinase (NIK/MAP3K14) activity. As to the method:
NIK/MAP3K14 auto-phosphorylation activity was measured using the AlphaScreen (ascreen) format (Perkin Elmer). All compound6 tested were dissolved in dimethyl sulfoxide (DMSO) and further dilutions were made in assay buffer. The final DMSO concentration was 0.7% (v/v) in assays. The assay buffer was 50 mM Tris pH 7.5 containing 1 mM EGTA (ethylene glycol tetraacetic acid), 1 mM DTT (dithiothreitol), 0.1 mM NasVCO4, 5 mM MgCE, and 0.01 % Tween 20. The assays were carried out in 384 well Proxiplates (Perkin Elmer). The incubations consisted of the compound, […] Adenosine-5'-triphosphate (ATP), and 1 nM NIK/MAP3K14. Incubations were initiated by the addition of GST-tagged NIK/MAP3K14 enzyme, carried out for 2 h at 25 °C and terminated by addition of stop buffer containing anti-phospho-IKK Ser176/180 antibody. Protein A Acceptor and Glutathione-Donor bead6 were added before reading using an EnVision Multilabel Plate Reader (Perkin Elmer). The signal obtained in the wells was normalized using high (full enzyme activity, 0.7% DMSO) and low controls (no enzyme activity, 0.7% DMSO, no ATP). IC50 s were determined by fitting a sigmoidal curve to % inhibition of control versus Log compound concentration.

Mitogen-activated protein kinase kinase kinase 14, sequence (Q99558 whole entry): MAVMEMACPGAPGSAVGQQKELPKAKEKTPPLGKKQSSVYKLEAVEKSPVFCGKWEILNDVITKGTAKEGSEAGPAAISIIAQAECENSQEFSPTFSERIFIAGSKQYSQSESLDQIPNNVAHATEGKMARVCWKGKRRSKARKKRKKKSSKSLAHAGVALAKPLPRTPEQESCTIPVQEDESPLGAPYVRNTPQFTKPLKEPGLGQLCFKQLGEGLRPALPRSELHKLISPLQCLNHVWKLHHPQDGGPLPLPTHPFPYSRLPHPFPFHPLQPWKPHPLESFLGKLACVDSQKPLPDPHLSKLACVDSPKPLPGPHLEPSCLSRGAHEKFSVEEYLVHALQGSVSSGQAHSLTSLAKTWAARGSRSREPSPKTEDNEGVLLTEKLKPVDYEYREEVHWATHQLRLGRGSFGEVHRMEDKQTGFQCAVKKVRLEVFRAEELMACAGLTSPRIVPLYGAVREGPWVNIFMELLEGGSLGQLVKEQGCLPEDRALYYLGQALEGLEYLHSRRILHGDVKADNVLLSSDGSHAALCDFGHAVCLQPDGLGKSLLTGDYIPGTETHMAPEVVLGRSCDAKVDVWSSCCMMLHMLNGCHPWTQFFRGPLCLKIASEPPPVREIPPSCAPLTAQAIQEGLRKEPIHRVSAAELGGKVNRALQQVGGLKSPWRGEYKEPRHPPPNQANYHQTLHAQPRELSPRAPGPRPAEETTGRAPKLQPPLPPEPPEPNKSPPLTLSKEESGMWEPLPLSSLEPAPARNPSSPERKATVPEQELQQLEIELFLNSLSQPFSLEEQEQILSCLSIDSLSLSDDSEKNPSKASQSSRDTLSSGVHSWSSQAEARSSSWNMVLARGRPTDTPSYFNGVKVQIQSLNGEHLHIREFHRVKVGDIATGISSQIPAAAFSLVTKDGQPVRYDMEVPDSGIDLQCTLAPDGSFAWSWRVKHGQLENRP

Turning to `O[C@]1(c2cccc(-c3csc(-c4c[nH]c5ncccc45)n3)c2)CCc2cccnc21` [WO2022104348, Example 1], the IC50 is > 500 nM.
Under `O[C@@]1(c2cccc(-c3csc(-c4c[nH]c5ncccc45)n3)c2)CCc2cccnc21` [WO2022104348, Example 2] stands < 100 nM.
For `CN1CC[C@](O)(c2cccc(-c3cnc(-c4c[nH]c5ncccc45)s3)c2)C1=O` [WO2022104348, Example 4], the IC50 was > 500 nM.
In the case of `O[C@@]1(c2cccc(-c3csc(-c4c[nH]c5ncncc45)n3)c2)CCc2cccnc21` [WO2022104348, Example 5], the half-maximal inhibitory concentration (IC50) was < 100 nM.
Turning to `Cc1cnc2[nH]cc(-c3nc(-c4cccc([C@]5(O)CCN(C)C5=O)c4)cs3)c2c1` [WO2022104348, Example 7], the IC50 was < 100 nM.
As for `CN1CC[C@@](O)(c2cccc(-c3nc(-c4c[nH]c5ncccc45)cs3)c2)C1=O` [WO2022104348, Example 8], the IC50 is < 100 nM.
In the case of `O[C@]1(c2cccc(-c3csc(-c4c[nH]c5ncccc45)n3)c2)Cc2nccn2C1` [WO2022104348, Example 10] it was < 100 nM; in that of `O[C@]1(c2cccc(-c3csc(-c4c[nH]c5nccnc45)n3)c2)OCc2cccnc21` [WO2022104348, Example 17], < 100 nM; in that of `O[C@@]1(c2cccc(-c3csc(-c4c[nH]c5ncc(C(F)(F)F)cc45)n3)c2)Cc2nccn2C1` [WO2022104348, Example 25], < 100 nM.
Turning to `N#Cc1cnc2[nH]cc(-c3nc(-c4cccc([C@]5(O)Cc6nccn6C5)c4)cs3)c2c1` [WO2022104348, Example 26], the IC50 is < 100 nM.
In the case of `O[C@@]1(c2cccc(-c3csc(-c4c[nH]c5ncc(Cl)cc45)n3)c2)Cc2nccn2C1` [WO2022104348, Example 27] it was < 100 nM.
With `O[C@@]1(c2cccc(-c3csc(-c4c[nH]c5ncccc45)n3)c2)CCc2scnc21` [WO2022104348, Example 32], the IC50 is < 100 nM.
`O[C@@]1(c2cccc(-c3csc(-c4c[nH]c5ncccc45)n3)c2)C=Cc2cccnc21` [WO2022104348, Example 33]: the IC50 was < 100 nM.
On to `O[C@]1(c2cccc(-c3csc(-c4c[nH]c5ncccc45)n3)c2)C=Cc2cccnc21` [WO2022104348, Example 34], for which the IC50 is > 500 nM.
In the case of `CC1(C)Cc2cccnc2[C@@]1(O)c1cccc(-c2csc(-c3c[nH]c4ncccc34)n2)c1` [WO2022104348, Example 35] it was > 500 nM.
`CC1(C)Cc2cccnc2[C@]1(O)c1cccc(-c2csc(-c3c[nH]c4ncccc34)n2)c1` [WO2022104348, Example 36]: the IC50 was < 100 nM.
Under `O[C@]1(c2cccc(-c3csc(-c4c[nH]c5ncccc45)n3)c2)CCCn2ccnc21` [WO2022104348, Example 37] stands > 500 nM; under `O[C@@]1(c2cccc(-c3csc(-c4c[nH]c5ncccc45)n3)c2)CCCn2ccnc21` [WO2022104348, Example 38], < 100 nM.
Under `CN1CC[C@](O)(c2cccc(-c3csc(-c4c[nH]c5ncccc45)n3)c2)C1=O` [WO2022104348, Example 39] stands > 500 nM.
In the case of `CN1CC[C@@](O)(c2cccc(-c3csc(-c4c[nH]c5ncccc45)n3)c2)C1=O` [WO2022104348, Example 40] it was < 100 nM; in that of `O[C@@]1(c2cccc(-c3csc(-c4c[nH]c5nccnc45)n3)c2)CCn2ccnc21` [WO2022104348, Example 41], < 100 nM; in that of `O=C1N(CC(F)(F)F)CC[C@]1(O)c1cccc(-c2csc(-c3c[nH]c4nccnc34)n2)c1` [WO2022104348, Example 43], > 500 nM.
`O=C1N(CC(F)(F)F)CC[C@@]1(O)c1cccc(-c2csc(-c3c[nH]c4nccnc34)n2)c1` [WO2022104348, Example 44]: the IC50 was > 500 nM.
In the case of `CN1C[C@@](O)(c2cccc(-c3csc(-c4c[nH]c5nccnc45)n3)c2)C1=O` [WO2022104348, Example 45] it was > 500 nM.
Under `CN1C[C@](O)(c2cccc(-c3csc(-c4c[nH]c5nccnc45)n3)c2)C1=O` [WO2022104348, Example 46] stands > 500 nM; under `COc1cnc2[nH]cc(-c3nc(-c4cccc([C@]5(O)CCN(C)C5=O)c4)cs3)c2c1` [WO2022104348, Example 49], < 100 nM; under `CN1CC[C@@](O)(c2cccc(-c3nc(-c4c[nH]c5ncccc45)sc3CO)c2)C1=O` [WO2022104348, Example 50], < 100 nM.
In the case of `CN1CC[C@@](O)(c2cccc(-c3csc(-c4c[nH]c5ncc(C(=O)O)cc45)n3)c2)C1=O` [WO2022104348, Example 51] it was < 100 nM.
For the molecule `CN1CC[C@@](O)(c2cccc(-c3csc(-c4c[nH]c5ncncc45)n3)c2)C1=O` [WO2022104348, Example 53], the IC50 is < 100 nM.
In the case of `CN1CCC[C@](O)(c2cccc(-c3csc(-c4c[nH]c5nccnc45)n3)c2)C1=O` [WO2022104348, Example 55] it was > 500 nM; in that of `Cc1sc(-c2c[nH]c3nccnc23)nc1-c1cccc([C@]2(O)CCN(C)C2=O)c1` [WO2022104348, Example 66], < 100 nM.
As to `Cc1ccc([C@]2(O)CCN(C)C2=O)cc1-c1csc(-c2c[nH]c3nccnc23)n1` [WO2022104348, Example 67], the IC50 is < 100 nM.
Under `Cc1cc(-c2csc(-c3c[nH]c4nccnc34)n2)cc([C@]2(O)CCN(C)C2=O)c1` [WO2022104348, Example 68] stands < 100 nM.
Under `Cc1ccc(-c2csc(-c3c[nH]c4nccnc34)n2)cc1[C@@]1(O)CCN(C)C1=O` [WO2022104348, Example 70] stands > 500 nM.
For `O[C@@]1(c2cccc(-c3csc(-c4n[nH]c5cccnc45)n3)c2)CCn2ccnc21` [WO2022104348, Example 75], the IC50 is ≤ 500 nM.
In the case of `C[C@@](O)(c1cccc(-c2csc(-c3c[nH]c4nccnc34)n2)c1)c1ncc[nH]1` [WO2022104348, Example 77] it was > 500 nM.
Regarding `C[C@](O)(c1cccc(-c2csc(-c3c[nH]c4nccnc34)n2)c1)c1ncc[nH]1` [WO2022104348, Example 78], the half-maximal inhibitory concentration (IC50) was > 500 nM.
Under `Cn1ccnc1[C@@](C)(O)c1cccc(-c2csc(-c3c[nH]c4ncccc34)n2)c1` [WO2022104348, Example 79] stands > 500 nM; under `C[C@@](O)(c1cccc(-c2csc(-c3c[nH]c4ncccc34)n2)c1)c1ncc[nH]1` [WO2022104348, Example 80], > 500 nM; under `Cc1cnc2[nH]cc(-c3nc(-c4cccc([C@@]5(O)CCn6ccnc65)c4)cs3)c2n1` [WO2022104348, Example 81], < 100 nM.
`Cc1cnc2c(-c3nc(-c4cccc([C@]5(O)CCn6ccnc65)c4)cs3)c[nH]c2n1` [WO2022104348, Example 83]: the IC50 is < 100 nM.
Take `O[C@@]1(c2cccc(-c3csc(-c4c[nH]c5ncccc45)n3)c2)COc2cccnc21` [WO2022104348, Example 85]: the IC50 was > 500 nM.
Under `O[C@@]1(c2cccc(-c3csc(-c4c[nH]c5nccnc45)n3)c2)COc2cccnc21` [WO2022104348, Example 86] stands > 500 nM; under `Cc1ccnc2[nH]cc(-c3nc(-c4cccc([C@]5(O)CCn6ccnc65)c4)cs3)c12` [WO2022104348, Example 87], < 100 nM.
With `O[C@@]1(c2cccc(-c3csc(-c4c[nH]c5nnccc45)n3)c2)CCn2ccnc21` [WO2022104348, Example 88], the IC50 is < 100 nM.
Under `O=C1Nc2cccnc2[C@]1(O)c1cccc(-c2csc(-c3c[nH]c4ncccc34)n2)c1` [WO2022104348, Example 89] stands > 500 nM; under `O=C1Nc2cccnc2[C@@]1(O)c1cccc(-c2csc(-c3c[nH]c4ncccc34)n2)c1` [WO2022104348, Example 90], > 500 nM; under `CN1C(=O)[C@@](O)(c2cccc(-c3csc(-c4c[nH]c5ncccc45)n3)c2)c2ncccc21` [WO2022104348, Example 91], > 500 nM.
In the case of `CN1C(=O)[C@](O)(c2cccc(-c3csc(-c4c[nH]c5ncccc45)n3)c2)c2ncccc21` [WO2022104348, Example 92] it was < 100 nM.
Under `CN1CC[C@@](O)(c2cccc(-c3coc(-c4c[nH]c5ncccc45)c3)c2)C1=O` [WO2022104348, Example 93] stands < 100 nM.
Regarding `CN1CC[C@@](O)(c2cccc(-c3csc(-c4c[nH]c5ncc(F)c(F)c45)n3)c2)C1=O` [WO2022104348, Example 94], the IC50 was < 100 nM.
On to `CN1CC[C@@](O)(c2cccc(-c3csc(-c4c[nH]c5ncc(Cl)c(F)c45)n3)c2)C1=O` [WO2022104348, Example 95], for which the IC50 was < 100 nM.
Consider `O[C@@]1(c2cccc(-c3csc(-c4c[nH]c5ncc(F)c(F)c45)n3)c2)CCn2ccnc21` [WO2022104348, Example 96], for which the IC50 is < 100 nM.
Consider `O[C@@]1(c2cccc(-c3csc(-c4c[nH]c5ncc(Cl)c(F)c45)n3)c2)CCn2ccnc21` [WO2022104348, Example 97], for which the IC50 is < 100 nM.
`CN1CC[C@@](O)(c2cccc(-c3nc(-c4c[nH]c5ncccc45)sc3C#N)c2)C1=O` [WO2022104348, Example 98]: the IC50 is > 500 nM.
As to `CN1CC[C@@](O)(c2cccc(-c3nc(-c4c[nH]c5ncccc45)sc3F)c2)C1=O` [WO2022104348, Example 99], the IC50 was < 100 nM.
In the case of `CN1CC[C@@](O)(c2cccc(-c3csc(-c4n[nH]c5ncccc45)n3)c2)C1=O` [WO2022104348, Example 100] it was > 500 nM.
